These results are taken from patent publication US12440496B2, “Natriuretic peptide receptor a agonists useful for the treatment of cardiometabolic diseases, kidney disease and diabetes” (Merck Sharp & Dohme LLC, priority 2019, dated 2025).

The EC50 is the concentration that produces a half-maximal response.

The test has as its target T1, hNPRA (Homo sapiens, UniProt P16066).
T1 construct: expressed in transfected cells
T1 sequence (P16066 33-1061): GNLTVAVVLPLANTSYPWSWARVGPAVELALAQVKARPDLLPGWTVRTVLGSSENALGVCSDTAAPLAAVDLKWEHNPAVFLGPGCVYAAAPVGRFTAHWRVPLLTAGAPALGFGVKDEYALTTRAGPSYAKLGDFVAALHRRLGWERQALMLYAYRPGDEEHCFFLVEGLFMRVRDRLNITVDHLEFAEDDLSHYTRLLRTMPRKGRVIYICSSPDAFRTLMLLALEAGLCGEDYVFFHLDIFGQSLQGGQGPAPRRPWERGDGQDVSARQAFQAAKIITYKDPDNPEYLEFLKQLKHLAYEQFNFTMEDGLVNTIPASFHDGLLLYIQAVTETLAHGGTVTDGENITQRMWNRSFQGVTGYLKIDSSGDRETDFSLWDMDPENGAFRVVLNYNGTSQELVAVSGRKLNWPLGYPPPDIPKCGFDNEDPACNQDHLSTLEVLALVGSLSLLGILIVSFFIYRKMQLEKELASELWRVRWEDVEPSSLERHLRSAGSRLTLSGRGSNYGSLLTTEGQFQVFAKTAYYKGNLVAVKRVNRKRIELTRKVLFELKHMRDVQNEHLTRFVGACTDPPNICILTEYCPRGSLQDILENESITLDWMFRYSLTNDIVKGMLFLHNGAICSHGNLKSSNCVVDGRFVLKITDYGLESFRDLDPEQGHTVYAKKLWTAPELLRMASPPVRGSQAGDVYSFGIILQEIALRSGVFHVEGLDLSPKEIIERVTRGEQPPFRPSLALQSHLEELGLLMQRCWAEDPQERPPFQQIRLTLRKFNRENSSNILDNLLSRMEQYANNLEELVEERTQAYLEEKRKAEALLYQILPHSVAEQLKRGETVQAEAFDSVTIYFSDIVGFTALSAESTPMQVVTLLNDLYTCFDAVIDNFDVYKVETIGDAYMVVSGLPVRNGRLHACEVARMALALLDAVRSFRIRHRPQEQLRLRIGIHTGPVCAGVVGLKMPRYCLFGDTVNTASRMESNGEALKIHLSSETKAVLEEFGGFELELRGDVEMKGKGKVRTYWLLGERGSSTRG
Nature of the test: NPRA Functional Cell Assay (cGMP HTRF, NPRA HEK JumpIn stable cells). It is filed as cell-based. The conditions noted are these: cGMP production, 1 hour at 37° C., 10-point dose response. In outline:
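cGMP HTRF read-out after 1 hour compound treatment at 37° C. of human NPRA-expressing HEK JumpIn cells, 1500 cells/well, in buffer with phosphodiesterase inhibitors IBMX and RO20 (100 uM each). Signal converted to [cGMP] by calibration curve; EC50s fitted by 4-parameter logistic; 50 nM h-ANP as positive response.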
In general terms: Time-resolved FRET reads energy transfer from a long-lived donor to a nearby acceptor.
The compound `CC(C)(C)[C@H]1CCc2nc3sc(C(=O)N[C@H](CCN4CCC(C(=O)O)CC4)c4ccc(-c5cnc(O)c(F)c5)cc4)nc3cc2C1` [Example 224, sodium 1-((R)-3-((S)-7-(tert-butyl)-5,6,7,8-tetrahydrothiazolo[5,4-b]quinoline-2-carboxamido)-3-(4-(5-fluoro-6-hydroxypyridin-3-yl)phenyl)propyl)piperidine-4-carboxylate] had an EC50 of 198 nM.

`CC(C)(C)[C@H]1CCc2nc3sc(C(=O)N[C@H](CCN)c4cccc(C(=O)N[C@H]5CCNC5)c4)cc3cc2C1` [Example 225]: the EC50 worked out at 292 nM.

Turning to `CN(C)S(=O)(=O)Nc1ccc([C@@H](CCN2CCC(O)CC2)NC(=O)c2nc3cc4c(nc3s2)CC[C@H](C(C)(C)C)C4)cc1F` [Example 226, (S)-7-(tert-butyl)-N-((R)-1-(4-((N,N-dimethylsulfamoyl)amino)-3-fluorophenyl)-3-(4-hydroxypiperidin-1-yl)propyl)-5,6,7,8-tetrahydrothiazolo[5,4-b]quinoline-2-carboxamide], it took 677 nM to reach a half-maximal effect (EC50).

Consider `CCS(=O)(=O)c1ccc([C@@H](CCN2CCC(O)CC2)NC(=O)c2nc3cc4c(nc3s2)CC[C@H](C(C)(C)C)C4)cn1` [Example 227, (S)-7-(tert-butyl)-N-((R)-1-(6-(ethylsulfonyl)pyridin-3-yl)-3-(4-hydroxypiperidin-1-yl)propyl)-5,6,7,8-tetrahydrothiazolo[5,4-b]quinoline-2-carboxamide], for which the EC50 stood at 696 nM.

In turn, `CC(C)(C)[C@H]1CCc2nc3sc(C(=O)N[C@H](CCN4CCC(O)CC4)c4ccc(-c5cc(F)c(O)cn5)cc4)nc3cc2C1` [Example 228, (S)-7-(tert-butyl)-N-((R)-1-(4-(4-fluoro-5-hydroxypyridin-2-yl)phenyl)-3-(4-hydroxypiperidin-1-yl)propyl)-5,6,7,8-tetrahydrothiazolo[5,4-b]quinoline-2-carboxamide] displayed an EC50 of 305 nM.

Turning to `CC(C)(C)[C@H]1CCc2nc3sc(C(=O)N[C@H](CCN)c4ccccc4)cc3cc2C1` [Example 229, (S)-N-((R)-3-amino-1-phenylpropyl)-6-(tert-butyl)-5,6,7,8-tetrahydrothieno[2,3-b]quinoline-2-carboxamide], the EC50 was above 2000 nM.

With `CC(C)(C)[C@H]1CCc2nc3sc(C(=O)N[C@H](CCN4CCC(O)CC4)c4ccc(N5CCOC5=O)cc4)nc3cc2C1` [Example 230, (S)-7-(tert-butyl)-N-((R)-3-(4-hydroxypiperidin-1-yl)-1-(4-(2-oxooxazolidin-3-yl)phenyl)propyl)-5,6,7,8-tetrahydrothiazolo[5,4-b]quinoline-2-carboxamide], the EC50 stood at 1020 nM.

Regarding `CC1([C@H]2CCc3nc4sc(C(=O)N[C@H](CCN5CCC(O)CC5)c5ccc(N6CCOC6=O)cc5)nc4cc3C2)CC1` [Example 231, (S)-N-((R)-3-(4-hydroxypiperidin-1-yl)-1-(4-(2-oxooxazolidin-3-yl)phenyl)propyl)-7-(1-methylcyclopropyl)-5,6,7,8-tetrahydrothiazolo[5,4-b]quinoline-2-carboxamide], the EC50 worked out at 725 nM.

The compound `O=C(N[C@H](CCN1CCC(O)CC1)c1ccc(N2CCOC2=O)cc1)c1nc2cc3c(nc2s1)CC[C@H](C1(C(F)(F)F)CC1)C3` [Example 232, (S)-N-((R)-3-(4-hydroxypiperidin-1-yl)-1-(4-(2-oxooxazolidin-3-yl)phenyl)propyl)-7-(1-(trifluoromethyl)cyclopropyl)-5,6,7,8-tetrahydrothiazolo[5,4-b]quinoline-2-carboxamide] came in with a half-maximal effective concentration (EC50) of 2200 nM.

In turn, `CC(C)C1(F)CCc2nc3sc(C(=O)N[C@H](CCN4CCC(O)CC4)c4ccc(N5CCOC5=O)cc4)nc3cc2C1` (stereo partly drawn) [Example 233, 7-fluoro-N-((R)-3-(4-hydroxypiperidin-1-yl)-1-(4-(2-oxooxazolidin-3-yl)phenyl)propyl)-7-isopropyl-5,6,7,8-tetrahydrothiazolo[5,4-b]quinoline-2-carboxamide] gave an EC50 of 2040 nM.

Consider `CC1([C@H]2CCc3nc4sc(C(=O)N[C@H](CCN5CCC(O)CC5)c5ccc(-c6c[nH]c(=O)c(F)c6)cc5)nc4cc3C2)CC1` [Example 234, (S)-N-((R)-1-(4-(5-fluoro-6-oxo-1,6-dihydropyridin-3-yl)phenyl)-3-(4-hydroxypiperidin-1-yl)propyl)-7-(1-methylcyclopropyl)-5,6,7,8-tetrahydrothiazolo[5,4-b]quinoline-2-carboxamide], for which a half-maximal effect (EC50) was put at 120 nM.

`O=C(N[C@H](CCN1CCC(O)CC1)c1ccc(-c2cnc(O)c(F)c2)cc1)c1nc2cc3c(nc2s1)CC[C@H](C1(C(F)(F)F)CC1)C3` [Example 235, (S)-N-((R)-1-(4-(5-fluoro-6-oxo-1,6-dihydropyridin-3-yl)phenyl)-3-(4-hydroxypiperidin-1-yl)propyl)-7-(1-(trifluoromethyl)cyclopropyl)-5,6,7,8-tetrahydrothiazolo[5,4-b]quinoline-2-carboxamide] gave an EC50 of 560 nM.

In turn, `CC(C)(C)[C@H]1CCc2nc3sc(C(=O)N[C@H](CCN4CCC(O)CC4)c4ccc(-c5c[nH]c(=O)c(F)c5)cc4)nc3cc2C1` [Example 236, (S)-7-(tert-butyl)-N-((R)-1-(4-(5-fluoro-6-oxo-1,6-dihydropyridin-3-yl)phenyl)-3-(4-hydroxypiperidin-1-yl)propyl)-5,6,7,8-tetrahydrothiazolo[5,4-b]quinoline-2-carboxamide] came in with an EC50 of 140 nM.

`CC(C)(C)[C@H]1CCc2nc3sc(C(=O)N[C@H](CCN4CCCCC4)c4ccc(-c5cnc(O)c(F)c5)cc4)cc3cc2C1` [Example 238, (S)-6-(tert-butyl)-N-((R)-1-(4-(5-fluoro-6-hydroxypyridin-3-yl)phenyl)-3-(piperidin-1-yl)propyl)-5,6,7,8-tetrahydrothieno[2,3-b]quinoline-2-carboxamide] registered an EC50 of 235 nM.

Take `Cc1cc(-c2ccc([C@@H](CCN3CCCCC3)NC(=O)c3cc4cc5c(nc4s3)CC[C@H](C(C)(C)C)C5)cc2)cnc1O` [Example 239, (6S)-6-tert-butyl-N-{(1R)-1-[4-(6-hydroxy-5-methylpyridin-3-yl)phenyl]-3-piperidin-1-ylpropyl}-5,6,7,8-tetrahydrothieno[2,3-b]quinoline-2-carboxamide]: the response was half-maximal at 1400 nM (EC50).

Regarding `Cc1nc(O)ccc1-c1ccc([C@@H](CCN2CCCCC2)NC(=O)c2cc3cc4c(nc3s2)CC[C@H](C(C)(C)C)C4)cc1` [Example 240, (6S)-6-tert-butyl-N-{(1R)-1-[4-(6-hydroxy-2-methylpyridin-3-yl)phenyl]-3-piperidin-1-ylpropyl}-5,6,7,8-tetrahydrothieno[2,3-b]quinoline-2-carboxamide], the EC50 came out at 1660 nM.

Compound `CC(C)(C)[C@H]1CCc2nc3sc(C(=O)N[C@H](CCN4CCCCC4)c4ccc(-c5cnc(O)c(N)c5)cc4)cc3cc2C1` [Example 241, (6S)-N-{(1R)-1-[4-(5-amino-6-hydroxypyridin-3-yl)phenyl]-3-piperidin-1-ylpropyl}-6-tert-butyl-5,6,7,8-tetrahydrothieno[2,3-b]quinoline-2-carboxamide] showed an EC50 of 1730 nM.

`CC(C)(C)[C@H]1CCc2nc3sc(C(=O)NC(CCN4CCCCC4)c4ccccc4)cc3cc2C1` (stereo partly drawn) [Example 242, (6S)-6-tert-butyl-N-(1-phenyl-3-piperidin-1-ylpropyl)-5,6,7,8-tetrahydrothieno[2,3-b]quinoline-2-carboxamide] had a 50% effective concentration (EC50) of 1870 nM.
